Assay results: patent publication US20260206757A1, “METHODS OF CONTROLLING UNDESIRABLE PLANTS WITH PPO HERBICIDES AND COMBINATIONS IN HERBICIDE TOLERANT CROP PLANTS” (BASF AGRO B.V., priority 2022, published 2026)

Experiments:
Portulaca oleracea = experiment: Greenhouse experiment, post emergence herbicidal activity; assay type: in vivo; settings: POROL, BBCH 12-14, Flumioxazin 4, Bifenox 168 g ai/ha
Procedure, shortened: (§1)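 Weeds grown to GS 12/14 under species-specific temperatures (10-25° C. or 20-35° C.) received a fine-nozzle spray of water-dispersed compositions containing 1% MSO. Injury was assessed 20/21 days later against untreated controls, 0 meaning no damage and 100 complete kill.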

Solanum nigrum = experiment: as above; assay type: in vivo; settings: SOLNI, BBCH 12-14, Flumioxazin 1, Fomesafen 123 g ai/ha
Procedure, shortened: as §1

sunflower = settings: applied to sunflower with at least two true leaves; cited from earlier work
HELAN w F(383)I = experiment: Greenhouse experiment, crop safety of PPO inhibitor tolerant sunflower; assay type: in vivo, Helianthus annuus; settings: scale 0 to 100%
Protocol: For the post emergence treatment, the plants were first grown to the 2 to 4 leaf stage (GS 12/14). The plants were cultivated due to their individual requirements at 10-25° C. and 20-35° C. The plants were irrigated as required.
Here, the herbicidal compositions were suspended or emulsified in water as distribution medium and sprayed using finely distributing nozzles. 1% methylated seed oil (MSO) has been added as adjuvant to each of the solo and mixture treatments.
In the greenhouse experiments, the herbicidal activity for the individual herbicidal compositions (solo and mixture applications) was assessed 20/21 days after treatment (DAT).
The evaluation for the damage on undesired weeds caused by the chemical compositions was carried out using a scale from 0 to 100%, compared to the untreated control plants. Here, 0 means no damage and 100 means complete destruction of the plants.

Echinochloa crus-galli = experiment: Field experiment, post-emergence herbicidal activity; assay type: in vivo; settings: ECHCG, postemergence
Protocol: (§2) Trial Objective: Saflufenacil in tank mix with Pendimethalin efficacy on weeds and grasses in early post-emergence of the weeds
(§3) On field test sites, natural weed infestation was treated, pre-emergence of the weeds on bare soil or post-emergence of the weeds.
(§4) For the post emergence treatment, the weedy plants were treated between the 2-4 true leaf stage (GS12-14) and the 6 true leaf stage (GS 16). The herbicidal compositions were suspended or emulsified in water as distribution medium and sprayed with commercial flat fan nozzles using between 100 and 200 l/ha water.
(§5) In the following experiments, the herbicidal activity for the individual herbicidal compositions (solo and mixture applications) was assessed up to 36 days after treatment (DAT). The assessments for the damage on undesired weeds caused by the chemical compositions was carried out using a scale from 0 to 100%, compared to the untreated control plants. Here, 0 means no damage and 100 means complete destruction of the plants.
(§6) [formula] • where X=effect in percent using herbicide (A) at an application rate a; • Y=effect in percent using herbicide (B) at an application rate b; • E=expected effect (in %) of herbicide (A)+herbicide (B) at application rates a+b.
(§7) The value E corresponds to the effect (plant damage or injury) which is to be expected if the activity of the individual compounds is additive. If the observed effect is higher than the value E calculated according to the Colby equation, a synergistic effect is present.

Mercuralis annua = experiment: as above; assay type: in vivo; settings: MERAN, postemergence, Saflufenacil 12.5, Pendimethalin 1365 g ai/ha
Protocol: as §2, §3, §4, §5, §6, §7

Amaranthus retroflexus = experiment: as above; assay type: in vivo; settings: AMARE, postemergence
Protocol: as §2, §3, §4, §5, §6, §7

[1] = Saflufenacil 12.5, Pendimethalin 1064 g ai/ha

| SMILES | % Herbicidal activity (Portulaca oleracea) [%] | % Herbicidal activity (Solanum nigrum) [%] | crop injury (sunflower) | Observed crop damage 21 days after treatment (HELAN w F(383)I; BBCH 12-14, Flumioxazin 0.5, Bifenox 168 g ai/ha) [%] | Observed crop damage 21 days after treatment (HELAN w F(383)I; BBCH 12-14, Flumioxazin 0.5, Halauxifen 1 g ai/ha) [%] | % Herbicidal activity (Echinochloa crus-galli; [1]) [%] | % Herbicidal activity (Echinochloa crus-galli; Saflufenacil 12.5, Pendimethalin 1365 g ai/ha) [%] | % Herbicidal activity (Echinochloa crus-galli; Saflufenacil 50, Pendimethalin 1064 g ai/ha) [%] | % Herbicidal activity (Mercuralis annua) [%] | % Herbicidal activity (Amaranthus retroflexus; Saflufenacil 12.5, Pendimethalin 840 g ai/ha) [%] | % Herbicidal activity (Amaranthus retroflexus; [1]) [%] |
| --- | --- | --- | --- | --- | --- | --- | --- | --- | --- | --- | --- |
| C#CCN1C(=O)COc2cc(F)c(N3C(=O)C4=C(CCCC4)C3=O)cc21 [Flumioxazin, 2-[7-fluoro-3,4-dihydro-3-oxo-4-(2-propyn-1-yl)-2H-1,4-benzoxazin-6-yl]-4,5,6,7-tetrahydro-1H-isoindole-1,3 (2H)-dione] | 98 | 90 | without high level of crop injury | 15 | 15 |  |  |  |  |  |  |
| CC(C)N(C)S(=O)(=O)NC(=O)c1cc(-n2c(=O)cc(C(F)(F)F)n(C)c2=O)c(F)cc1Cl [Saflufenacil, 2-chloro-5-[3,6-dihydro-3-methyl-2,6-dioxo-4-(trifluoromethyl)-1-(2H)pyrimidinyl]-4-fluoro-N-[[methyl (1-methylethyl)amino]-sulfonyl]benzamide] |  |  |  |  |  | 0 | 5 | 0 | 0 | 35 | 60 |
